Results as given in the NIST ThermoML archive (doi:10.1016/j.jct.2007.07.005).

Test: xn = mol fraction of the nth substance listed
Conditions: Fluid (supercritical or subcritical phases), vibrating tube

CCCCCO [pentan-1-ol] + O=C=O
Conditions	mass density [kg/m3]
323.11 K, 21027 kPa, x2 = 0.1347	813.66
323.11 K, 21051 kPa, x2 = 0.6054	847.84
323.11 K, 22019 kPa, x2 = 0.6054	849.47
323.11 K, 22027 kPa, x2 = 0.1347	814.42
323.11 K, 23017 kPa, x2 = 0.1347	815.16
323.11 K, 23023 kPa, x2 = 0.6054	851.13
323.11 K, 24022 kPa, x2 = 0.1347	815.93
323.11 K, 24036 kPa, x2 = 0.6054	852.76
323.11 K, 24999 kPa, x2 = 0.1347	816.68
323.11 K, 25069 kPa, x2 = 0.6054	854.41
332.79 K, 493 kPa, x2 = 0	784.29
332.79 K, 1014 kPa, x2 = 0	784.76
332.79 K, 2006 kPa, x2 = 0	785.61
332.79 K, 3025 kPa, x2 = 0	786.48
332.79 K, 4011 kPa, x2 = 0	787.28
332.79 K, 5020 kPa, x2 = 0	788.11
332.79 K, 6003 kPa, x2 = 0	788.91
332.79 K, 6997 kPa, x2 = 0	789.73
332.79 K, 8009 kPa, x2 = 0	790.54
332.79 K, 8995 kPa, x2 = 0	791.31
332.79 K, 9996 kPa, x2 = 0	792.12
332.79 K, 11018 kPa, x2 = 0	792.9
332.79 K, 11995 kPa, x2 = 0	793.66
332.79 K, 13023 kPa, x2 = 0	794.45
332.79 K, 13999 kPa, x2 = 0	795.19
332.79 K, 15010 kPa, x2 = 0	795.95
332.79 K, 16028 kPa, x2 = 0	796.68
332.79 K, 17003 kPa, x2 = 0	797.41
332.79 K, 18040 kPa, x2 = 0	798.14
332.79 K, 19004 kPa, x2 = 0	798.84
332.79 K, 20035 kPa, x2 = 0	799.59
332.79 K, 21024 kPa, x2 = 0	800.29
332.79 K, 21993 kPa, x2 = 0	800.97
332.79 K, 23039 kPa, x2 = 0	801.71
332.79 K, 24015 kPa, x2 = 0	802.4
332.79 K, 25022 kPa, x2 = 0	803.12
332.93 K, 8022 kPa, x2 = 0.3624	806.47
332.93 K, 9003 kPa, x2 = 0.3624	807.66
332.93 K, 9033 kPa, x2 = 0.4651	808.88
332.93 K, 10018 kPa, x2 = 0.3624	808.86
332.93 K, 10027 kPa, x2 = 0.4651	810.57
332.93 K, 10989 kPa, x2 = 0.3624	809.94
332.93 K, 11000 kPa, x2 = 0.4651	812.22
332.93 K, 12008 kPa, x2 = 0.3624	811.14
332.93 K, 12019 kPa, x2 = 0.4651	813.92
332.93 K, 12032 kPa, x2 = 0.8067	770.68
332.93 K, 12989 kPa, x2 = 0.9757	593.78
332.93 K, 12995 kPa, x2 = 0.8067	780.67
332.93 K, 13015 kPa, x2 = 0.3624	812.22
332.93 K, 13017 kPa, x2 = 0.4651	815.52
332.93 K, 13981 kPa, x2 = 0.3624	813.29
332.93 K, 13992 kPa, x2 = 0.9757	633.72
332.93 K, 14013 kPa, x2 = 0.8067	788.98
332.93 K, 14027 kPa, x2 = 0.4651	817.14
332.93 K, 15014 kPa, x2 = 0.9757	664.21
332.93 K, 15021 kPa, x2 = 0.3624	814.39
332.93 K, 15023 kPa, x2 = 0.4651	818.68
332.93 K, 15025 kPa, x2 = 0.8067	796.09
332.93 K, 15992 kPa, x2 = 0.3624	815.41
332.93 K, 16007 kPa, x2 = 0.4651	820.18
332.93 K, 16011 kPa, x2 = 0.9757	687.95
332.93 K, 16021 kPa, x2 = 0.8067	802.3
332.93 K, 17012 kPa, x2 = 0.3624	816.44
332.93 K, 17014 kPa, x2 = 0.4651	821.68
332.93 K, 17021 kPa, x2 = 0.8067	808.04
332.93 K, 17022 kPa, x2 = 0.9757	707.96
332.93 K, 18010 kPa, x2 = 0.3624	817.48
332.93 K, 18021 kPa, x2 = 0.8067	813.35
332.93 K, 18021 kPa, x2 = 0.9757	724.84
332.93 K, 18040 kPa, x2 = 0.4651	823.21
332.93 K, 19008 kPa, x2 = 0.9757	739.5
332.93 K, 19011 kPa, x2 = 0.8067	818.27
332.93 K, 19015 kPa, x2 = 0.4651	824.63
332.93 K, 19032 kPa, x2 = 0.3624	818.5
332.93 K, 19997 kPa, x2 = 0.3624	819.44
332.93 K, 20022 kPa, x2 = 0.8067	822.95
332.93 K, 20026 kPa, x2 = 0.4651	826.05
332.93 K, 20041 kPa, x2 = 0.9757	753.18
332.93 K, 21019 kPa, x2 = 0.4651	827.43
332.93 K, 21021 kPa, x2 = 0.9757	764.86
332.93 K, 21024 kPa, x2 = 0.3624	820.43
332.93 K, 21029 kPa, x2 = 0.8067	827.4
332.93 K, 21989 kPa, x2 = 0.8067	831.41
332.93 K, 21997 kPa, x2 = 0.4651	828.79
332.93 K, 22013 kPa, x2 = 0.3624	821.46
332.93 K, 22013 kPa, x2 = 0.9757	775.63
332.93 K, 23008 kPa, x2 = 0.8067	835.47
332.93 K, 23021 kPa, x2 = 0.3624	822.42
332.93 K, 23031 kPa, x2 = 0.4651	830.22
332.93 K, 23997 kPa, x2 = 0.3624	823.36
332.93 K, 24024 kPa, x2 = 0.4651	831.62
332.93 K, 24893 kPa, x2 = 0.3624	824.24
332.95 K, 13016 kPa, x2 = 0.8573	754.58
332.95 K, 13026 kPa, x2 = 0.9216	704.11
332.95 K, 14021 kPa, x2 = 0.9216	723.65
332.95 K, 14042 kPa, x2 = 0.8573	766.56
332.95 K, 15016 kPa, x2 = 0.9216	739.26
332.95 K, 15028 kPa, x2 = 0.8573	776.2
332.95 K, 15984 kPa, x2 = 0.9216	752.12
332.95 K, 16013 kPa, x2 = 0.8573	784.6
332.95 K, 17014 kPa, x2 = 0.8573	792.22
332.95 K, 17039 kPa, x2 = 0.9216	764.27
332.95 K, 18011 kPa, x2 = 0.8573	799.17
332.95 K, 18019 kPa, x2 = 0.9216	774.24
332.95 K, 19005 kPa, x2 = 0.9216	783.37
332.95 K, 19027 kPa, x2 = 0.8573	805.67
332.95 K, 20006 kPa, x2 = 0.8573	811.5
332.95 K, 20008 kPa, x2 = 0.9216	791.89
332.95 K, 20996 kPa, x2 = 0.8573	817.04
332.95 K, 21037 kPa, x2 = 0.9216	799.89
332.95 K, 21691 kPa, x2 = 0.9216	804.69
332.95 K, 22056 kPa, x2 = 0.8573	822.62
332.95 K, 23032 kPa, x2 = 0.8573	827.46
332.95 K, 24010 kPa, x2 = 0.8573	832.11
332.96 K, 3007 kPa, x2 = 0.0816	789.68
332.96 K, 4028 kPa, x2 = 0.0816	790.6
332.96 K, 4991 kPa, x2 = 0.0816	791.47
332.96 K, 5998 kPa, x2 = 0.0816	792.36
332.96 K, 7025 kPa, x2 = 0.0816	793.27
332.96 K, 7995 kPa, x2 = 0.0816	794.13
332.96 K, 9031 kPa, x2 = 0.0816	795.01
332.96 K, 10005 kPa, x2 = 0.0816	795.83
332.96 K, 11008 kPa, x2 = 0.0816	796.67
332.96 K, 12026 kPa, x2 = 0.0816	797.53
